Assay results: US4337199A, “Antibiotic β-lactam compounds, production thereof, and their use as antimicrobial agent” (Sanraku-Ocean Co., Ltd., priority 1978, dated 1982)
≈ marks a conversion by molar mass, not a printed value. Like-named read-outs stand apart in the source and are kept apart here.

How the values were obtained:
[1] = tested on: Staphylococcus epidermidis; test: minimum inhibitory concentration, agar dilution assay; type: cell-based; settings: read-out: minimum inhibitory concentration
How it was run: (§1)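 Two-fold compound dilutions were incorporated into heart infusion agar. Plates were inoculated with overnight Trypto-Soy broth cultures (35 °C, 18-20 h) diluted to about 10^8 cells/ml. After 20 h at 35 °C, MIC was taken as the lowest concentration with no growth.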

Sarcina lutea = test: as above; type: cell-based; settings: Micrococcus luteus, read-out: minimum inhibitory concentration
How it was run: as §1

[2] = tested on: Alcaligenes faecalis B326; test: as above; type: cell-based; settings: read-out: minimum inhibitory concentration
How it was run: as §1

[3] = tested on: Staphylococcus aureus FDA 209P; test: as above; type: cell-based; settings: FDA209P, read-out: minimum inhibitory concentration
How it was run: as §1

[4] = tested on: Comamonas terrigena B-996; test: as above; type: cell-based; settings: read-out: minimum inhibitory concentration
How it was run: as §1

[5] = tested on: Bacillus subtilis ATCC 6633; test: as above; type: cell-based; settings: read-out: minimum inhibitory concentration
How it was run: as §1

solubility = type: physicochemical
[6] = tested on: Citrobacter freundii GN 346; test: minimum inhibitory concentration, agar dilution assay; type: cell-based; settings: GN346, agar dilution, 35° C., 20 hours, read-out: minimum inhibitory concentration
How it was run: as §1

[7] = tested on: Staphylococcus aureus Smith; test: as above; type: cell-based; settings: agar dilution, 35° C., 20 hours, read-out: minimum inhibitory concentration
How it was run: as §1

Escherichia coli RGN 823 = test: as above; type: cell-based; settings: RGN823, agar dilution, 35° C., 20 hours, read-out: minimum inhibitory concentration
How it was run: as §1

[8] = tested on: Pseudomonas aeruginosa IFO3445; test: as above; type: cell-based; settings: IFO3445, agar dilution, 35° C., 20 hours, read-out: minimum inhibitory concentration
How it was run: as §1

Enterobacter sp. E8 = test: as above; type: cell-based; settings: SP.E8, agar dilution, 35° C., 20 hours, read-out: minimum inhibitory concentration
How it was run: as §1

Serratia marcescens T55 = test: as above; type: cell-based; settings: T55, agar dilution, 35° C., 20 hours, read-out: minimum inhibitory concentration
How it was run: as §1

Escherichia coli K-12 = test: as above; type: cell-based; settings: read-out: minimum inhibitory concentration
How it was run: as §1

Alcaligenes faecalis A 1 = test: as above; type: cell-based; settings: A1, agar dilution, 35° C., 20 hours, read-out: minimum inhibitory concentration
How it was run: as §1

Providencia sp. P8 = test: as above; type: cell-based; settings: SP.P8, agar dilution, 35° C., 20 hours, read-out: minimum inhibitory concentration
How it was run: as §1

Proteus mirabilis P6 = test: as above; type: cell-based; settings: P6, agar dilution, 35° C., 20 hours, read-out: minimum inhibitory concentration
How it was run: as §1

[9] = tested on: Klebsiella pneumoniae K-13; test: as above; type: cell-based; settings: K13, agar dilution, 35° C., 20 hours, read-out: minimum inhibitory concentration
How it was run: as §1

Serratia marcescens S18 = test: as above; type: cell-based; settings: S18, agar dilution, 35° C., 20 hours, read-out: minimum inhibitory concentration
How it was run: as §1

Proteus vulgaris GN76 = test: as above; type: cell-based; settings: GN76, agar dilution, 35° C., 20 hours, read-out: minimum inhibitory concentration
How it was run: as §1

Proteus rettgeri P7 = test: as above; type: cell-based; settings: Providencia rettgeri, P7; agar dilution, 35° C., 20 hours; read-out: minimum inhibitory concentration
How it was run: as §1

Enterobacter cloacae 45 = test: as above; type: cell-based; settings: Enterobacter cloacae, 45; agar dilution, 35° C., 20 hours; read-out: minimum inhibitory concentration
How it was run: as §1

[10] = tested on: Pseudomonas aeruginosa NCTC10490; test: as above; type: cell-based; settings: NCTC10490, agar dilution, 35° C., 20 hours, read-out: minimum inhibitory concentration
How it was run: as §1

Proteus sp. P22 = test: as above; type: cell-based; settings: agar dilution, 35° C., 20 hours; read-out: minimum inhibitory concentration
How it was run: as §1

[11] = tested on: Staphylococcus aureus Russell; test: as above; type: cell-based; settings: agar dilution, 35° C., 20 hours, read-out: minimum inhibitory concentration
How it was run: as §1

[12] = tested on: Enterobacter aerogenes E19; test: as above; type: cell-based; settings: Klebsiella aerogenes, E19; agar dilution, 35° C., 20 hours; read-out: minimum inhibitory concentration
How it was run: as §1

[13] = tested on: Gram-positive and Gram-negative bacteria; test: antibiotic activity (antimicrobial spectrum); type: cell-based; settings: comparison in words
Description: The minimum inhibitory concentrations of the compounds of formula (I-a-1) or (I-b-1) in Tables I-1 to I-7 and the known compounds in Table I-8 on the various microorganisms shown in the above tables were measured by an agar dilution assay method using a brain heart infusion agar medium "Difco" (a product of Difco Laboratories Inc.)
A sample of the test compound was dissolved in sterile distilled water and diluted to prepare a two-fold dilution series of the compound solution. In a petri plate of 9 cm diameter, 1 ml of the compound solution was added to 9 ml of molten sterile heart infusion agar medium (Difco Laboratories Inc.) at about 60° C. to prepare the compound-containing agar plate. An overnight culture of each test organism indicated in the above table which was prepared by stationary cultivation in Trypto-Soy broth (Eiken Chemi. Co., Ltd.) at 35° C. for 18 to 20 hours, was diluted with the Trypto-Soy broth to give approximately 10^8 cells/ml and the diluted inoculum was inoculated onto the compound-containing agar plates. After cultivating the plates at 35° C. for 20 hours, the growth of the organism was observed. The minimum concentration of the compound at which no growth of the microorganism was noted was determined, and defined as the minimum inhibitory concentration of the test compound.

[14] = Test for concentration in blood (plasma of mouse, bioassay); type: in vivo; settings: sc, subcutaneous, 2 mg/mouse, average of five mice
Description: Typical species of the compounds of formula (I-d) were each administered subcutaneously to five mice in a dose of 2 mg. After 5 minutes from the administration, a small amount of blood was periodically drawn from the eyes of the mice into a heparinized capillary tube, and centrifuged. The concentration of the compound in the supernatant liquid (plasma) was determined by a bioassay method using Comamonas terrigena B-996.

[15] = tested on: Staphylococcus aureus Smith strain; test: Infection treating test; type: in vivo, Staphylococcus aureus (in ddy male mice); settings: sc, 2 h, mice infected intraperitoneally, 5×10^5 cells per mouse, subcutaneous, two hours after infection, read-out: CD50 (the source's name)
Description: The in vivo activities of the compounds of formula (I-d) were determined by using mice (five per group, ddy male mice, Shizuoka) which had been intraperitoneally infected with Staphylococcus aureus Smith strain in an amount of 5×10^5 cells per mouse. Two hours after the infection, an injection containing a sodium salt of each of the compounds of formula (I-d) was subcutaneously administered to the mice.

[16] = tested on: Gram-positive and Gram-negative bacteria; settings: stated as known; cited from earlier work
[17] = agar dilution, 35° C., 20 hours
[18] = K12, agar dilution, 35° C., 20 hours
[19] = B996, agar dilution, 35° C., 20 hours
[20] = ATCC6633, agar dilution, 35° C., 20 hours

Compound	MIC [6] [µg/mL]	MIC [7] [µg/mL]	MIC (Escherichia coli RGN 823) [µg/mL]	MIC [1, 17] [µg/mL]	MIC (Sarcina lutea; [17]) [µg/mL]	MIC [3, 17] [µg/mL]	MIC [8] [µg/mL]	MIC (Enterobacter sp. E8) [µg/mL]	MIC (Serratia marcescens T55) [µg/mL]	MIC [4, 19] [µg/mL]	MIC (Alcaligenes faecalis A 1) [µg/mL]	MIC (Providencia sp. P8) [µg/mL]	MIC (Proteus mirabilis P6) [µg/mL]	MIC [9] [µg/mL]	MIC (Serratia marcescens S18) [µg/mL]	MIC [5, 20] [µg/mL]	MIC (Proteus vulgaris GN76) [µg/mL]	MIC (Proteus rettgeri P7) [µg/mL]	MIC (Enterobacter cloacae 45) [µg/mL]	MIC [10] [µg/mL]	further results
CCCCSC1=C(C(=O)[O-])N2C(=O)C(CC)C2C1.[Na+] (stereo not drawn) [Example 68, Sodium 3-n-butylthio-6-ethyl-7-oxo-1-azabicyclo[3.2.0]hept-2-ene-2-carboxylate]																					MIC ([1]; 20 h): 0.12 µg/mL; MIC (Sarcina lutea; 20 h): 1.88 µg/mL; MIC ([2]; B326, 20 h): 15 µg/mL; MIC ([3]; 20 h): 0.24 µg/mL; MIC ([4]; B996, 20 h): 0.24 µg/mL; MIC ([5]; ATCC6633, 20 h): 3.75 µg/mL
CC(=O)NCCSC1=C(C(=O)O)N2C(=O)[C@H](C(C)O)[C@H]2C1 (stereo partly drawn) [PS-3A, 3-(2-acetamidoethylthio)-6-(1-hydroxyethyl)-7-oxo-1-azabicyclo[3.2.0]hept-2-ene-2-carboxylic acid, reference compound]	10 (≈ 31.8 µM)	1.25 (≈ 3.98 µM)	5 (≈ 15.9 µM)	2.5 (≈ 7.95 µM)	0.63 (≈ 2 µM)	0.31 (≈ 0.986 µM)	20.1 (≈ 63.9 µM)	5 (≈ 15.9 µM)	20.1 (≈ 63.9 µM)	0.08 (≈ 0.254 µM)	1.25 (≈ 3.98 µM)	5 (≈ 15.9 µM)	20.1 (≈ 63.9 µM)	10 (≈ 31.8 µM)	10 (≈ 31.8 µM)	1.25 (≈ 3.98 µM)	20.1 (≈ 63.9 µM)	20.1 (≈ 63.9 µM)	10 (≈ 31.8 µM)	20.1 (≈ 63.9 µM)	Solubility in acetone (solubility; acetone): substantially insoluble in acetone; Solubility in water (solubility; water): Readily soluble in water; MIC (Escherichia coli K-12; [18]): 2.5 µg/mL (≈ 7.95 µM); MIC (Proteus sp. P22): 20.1 µg/mL (≈ 63.9 µM); MIC [11]: 1.25 µg/mL (≈ 3.98 µM); MIC [12]: 20.1 µg/mL (≈ 63.9 µM)
CC(=O)NCCSC1=C(C(=O)O)N2C(=O)C(C(C)O)C2C1 (stereo not drawn) [PS-3, 3-(2-acetamidoethylthio)-6-(1-hydroxyethyl)-7-oxo-1-azabicyclo[3.2.0]hept-2-ene-2-carboxylic acid]																					antibiotic activity (in words) [13]: better antibiotic activity than cephazolin (CEZ)
CCC1C(=O)N2C(C(=O)O)=C(SCCNC(C)=O)CC12 (stereo not drawn) [PS-5, 3-(2-acetaminothylthio)-6-ethyl-7-oxo-1-azabicyclo-[3.2.0]hept-2-ene-2-carboxylic acid, reference compound]	3.13 (≈ 10.5 µM)	0.1 (≈ 0.335 µM)	3.13 (≈ 10.5 µM)	0.1 (≈ 0.335 µM)	0.05 (≈ 0.168 µM)	0.025 (≈ 0.0838 µM)	25 (≈ 83.8 µM)	1.56 (≈ 5.23 µM)	6.25 (≈ 20.9 µM)	0.013 (≈ 0.0436 µM)	0.39 (≈ 1.31 µM)	3.13 (≈ 10.5 µM)	6.25 (≈ 20.9 µM)	6.25 (≈ 20.9 µM)	6.25 (≈ 20.9 µM)	0.1 (≈ 0.335 µM)	12.5 (≈ 41.9 µM)	12.5 (≈ 41.9 µM)	6.25 (≈ 20.9 µM)	12.5 (≈ 41.9 µM)	antibiotic activity (in words) [13]: better antibiotic activity than cephazolin (CEZ); MIC (Escherichia coli K-12; [18]): 1.56 µg/mL (≈ 5.23 µM); MIC (Proteus sp. P22): 25 µg/mL (≈ 83.8 µM); MIC [11]: 0.1 µg/mL (≈ 0.335 µM); MIC [12]: 3.13 µg/mL (≈ 10.5 µM)
CC(=O)NCCSC1=C(C(=O)O)N2C(=O)[C@H](C(C)O)[C@H]2C1 (stereo partly drawn) [PS-3A . Na]																					half-life ([14]; read-out: Half period): 12 min; Cmax ([14]; read-out: Maximum concentration): 52 µg/mL; ED50 [15]: 4 mg/kg
CCCCSC1=C(C(=O)O)N2C(=O)C(C(C)C)C2C1 (stereo not drawn) [R1 CH3, R21 (CH2CH3)3]				0.12 (≈ 0.423 µM)	7.5 (≈ 26.5 µM)	0.48 (≈ 1.69 µM)				0.48 (≈ 1.69 µM)						15 (≈ 52.9 µM)					MIC ([2]; B326, agar dilution, 35° C., 20 hours): 20 µg/mL (≈ 70.6 µM)
CC(=O)NCCSC1=C(C(=O)O)N2C(=O)C(C(C)C)C2C1 (stereo not drawn) [PS-6, 3-(2-acetamidoethylthio)-6-isopropyl-7-oxo-1-azabicyclo[3.2.0]hept-2-ene-2-carboxylic acid, reference compound]	12.5 (≈ 40 µM)	0.2 (≈ 0.64 µM)	6.25 (≈ 20 µM)	0.39 (≈ 1.25 µM)	0.39 (≈ 1.25 µM)	0.1 (≈ 0.32 µM)	50 (≈ 160 µM)	6.25 (≈ 20 µM)	50 (≈ 160 µM)	0.1 (≈ 0.32 µM)	1.56 (≈ 4.99 µM)	6.25 (≈ 20 µM)	12.5 (≈ 40 µM)	25 (≈ 80 µM)	25 (≈ 80 µM)	0.78 (≈ 2.5 µM)	12.5 (≈ 40 µM)	6.25 (≈ 20 µM)	25 (≈ 80 µM)	50 (≈ 160 µM)	antibiotic activity (in words) [13]: better antibiotic activity than cephazolin (CEZ); MIC (Escherichia coli K-12; [18]): 6.25 µg/mL (≈ 20 µM); MIC (Proteus sp. P22): 25 µg/mL (≈ 80 µM); MIC [11]: 0.2 µg/mL (≈ 0.64 µM); MIC [12]: 25 µg/mL (≈ 80 µM)
Cc1nnc(SCC2=C(C(=O)O)N3C(=O)[C@@H](NC(=O)Cn4cnnn4)[C@H]3SC2)s1 [CEZ, cephazolin, reference compound]	> 200	0.2 (≈ 0.44 µM)	200 (≈ 440 µM)	0.1 (≈ 0.22 µM)	0.39 (≈ 0.858 µM)	0.1 (≈ 0.22 µM)	> 200	3.13 (≈ 6.89 µM)	> 200	0.2 (≈ 0.44 µM)	3.13 (≈ 6.89 µM)	100 (≈ 220 µM)	6.25 (≈ 13.8 µM)	200 (≈ 440 µM)	> 200	0.2 (≈ 0.44 µM)	> 200	> 200	> 200	> 200	MIC (Escherichia coli K-12; K12, 20 h): 1.56 µg/mL (≈ 3.43 µM); MIC (Proteus sp. P22): > 200 µg/mL; MIC [11]: 0.2 µg/mL (≈ 0.44 µM); MIC [12]: > 200 µg/mL; effectiveness against Pseudomonas aeruginosa and Serratia, Proteus, Klebsiella, Enterobacter [16]: known to be effective against Pseudomonas aeruginosa and microorganisms of the genus Serratia, Proteus, Klebsiella, and Enterobacter
